# From patent US20040235932A1, “Ophthalmic pharmaceutical compositions” (priority 2001, published 2004)
# “Also recorded” adds a separate entry of the source.
# How the values were obtained:
# [1] = tested on: patients suffering from ocular hypertension; settings: cited from earlier work
# [2] = tested on: Dutch male colored rabbits; test: Activity to reduce intraocular pressure on continuous eye drop administration in rabbits; type: in vivo, rabbit; settings: for Difference in intraocular pressure after the administration: test eye vs control eye, mean±S.E.; for time of maximum reduction in intraocular pressure after the administration: all determination days to the 57th day
# Description: KRG-3332 as prepared in Reference Example 2 was dissolved in physiological saline to prepare a 0.01% solution, which was used as test solution 1 (0.01% eye drop) in the following method for determining the activity to reduce intraocular pressure. […] For the administration of eye drop, each 50 ρL of the test solution and the control (physiological saline) was administered to one eye and the other eye respectively, twice a day (11:00 and 19:00), and the administration continued for up to 57 days. The corneal surfaces of the animals were anaesthetized with 0.4% oxybuprocaine hydrochloride eye drop to, and the intraocular pressure was determined at time points of 11:00 (before the administration), 13:00(2 hours after the administration), 15:00 (4 hours after the administration) and 19:00 (8 hours after the administration, immediately before the second administration) one day before the administration and thereafter every week using an air applanation ophthalmotonometer (ALCON JAPAN LTD.). Average (mean±S.E.) of the difference between the intraocular pressures of eyes administered with the test solution and the control as determined at each time point, and the relevant t-test results were estimated. KRG-3332 was dissolved in physiological saline to prepare a 0.1% solution, which was used as test solution 2 (0.1% eye drop) in the determination of the activity to reduce intraocular pressure in a similar manner to above (1). For the comparison, bunazosin hydrochloride was dissolved in physiological saline to prepare a 0.03% solution, which was used as test solution 3 (reference drug, 0.03% eye drop of bunazosin hydrochloride) in the determination of the activity to reduce intraocular pressure in a similar manner to above (1) and (2).
# [3] = tested on: patients suffering from primary closed angle glaucoma and ocular hypertension; settings: 0.05% eye drop, continuous administration; cited from earlier work
# [4] = target: T1, human variant α1 A-AR (Homo sapiens, UniProt P35348, A271T); test: Effects on expression level of α1 A-AR in CHO cells expressing variant α1 A-AR ([3H]-prazosin binding to membrane fractions); settings: CHO cells expressing variant α1 A-AR cultured 48 hours with test drug 10^−8 M (mixture: each 10^−8 M)
# T1 sequence (P35348 1-466 A271T): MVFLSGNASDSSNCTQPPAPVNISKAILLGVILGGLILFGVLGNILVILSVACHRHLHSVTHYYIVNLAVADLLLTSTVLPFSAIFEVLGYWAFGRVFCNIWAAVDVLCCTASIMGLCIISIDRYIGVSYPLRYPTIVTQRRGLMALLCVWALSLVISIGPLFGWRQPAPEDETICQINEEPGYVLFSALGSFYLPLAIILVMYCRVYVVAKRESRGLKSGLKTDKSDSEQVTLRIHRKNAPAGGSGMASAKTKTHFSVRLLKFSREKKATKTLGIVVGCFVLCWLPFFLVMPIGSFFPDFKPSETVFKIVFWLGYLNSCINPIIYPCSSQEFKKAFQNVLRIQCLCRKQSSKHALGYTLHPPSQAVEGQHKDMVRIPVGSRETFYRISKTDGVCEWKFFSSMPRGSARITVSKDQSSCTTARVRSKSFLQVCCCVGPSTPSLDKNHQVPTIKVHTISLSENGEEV
# Description: The wild or variant α1 A-AR gene was incorporated into mammalian expression vector pCR3 (Invitrogen Inc.) using restriction enzyme EcoRI, and the vector was transfected into CHO cells with Lipofectamin (GIBCO Inc.).
# The membrane fractions (about 20 μg protein/tube) were incubated in the presence of [^3 H]-prazosin (NEN Inc.) (30 to 200 μM) at 30° C. for 45 minutes, and then harvested on GF/C filter (Whatman Inc.) using a cell collecting apparatus (m-36T, Brandel Inc.). The filter was washed with 50 mM Tris-HCl buffer (pH7.4) several times, and then the radioactivity bound on the membrane was determined using a liquid scintillation counter. […] The experimental data was analyzed using nonlinear approximate program PRISM (trade mark) (Graphpad Software Inc.) to calculate the expression level of the receptor.
structure (smiles),measurement,setting,value
"COC(=O)[C@H]1[C@H]2C[C@H]3c4[nH]c5ccccc5c4CCN3C[C@@H]2CC[C@@H]1O [corynanthine, methyl 17α-hydroxyyohimban-16β-carboxylate]",activity for reducing intraocular pressure,[1]; concentrations of 2 to 5% in eye drops,demonstrated Lo have an activity for reducing intraocular pressure
same,development of drug resistance,[1]; continued administration for a week,the continued administration thereof for a week developed drug resistance
"CCOc1ccccc1OCCN[C@H](C)Cc1cc(C(N)=O)c2c(ccn2CCCOC(=O)C(C)(C)C)c1.Cl [KRG-3332, (R)-3-[7-carbamoyl-5-[2-[[2-(2-ethoxyphenoxy)ethyl]amino]propyl]-1H-indol-1-yl]propyl pivalate hydrochloride]",development of drug resistance (change in activity to reduce intraocular pressure by continuous administration),[2]; 0.01% and 0.1% eye drops twice a day for up to 57 days,no development of drug resistance
same,Difference in intraocular pressure after the administration,"[2]; 0.01% eye drop, 1st day, 0 hours after the administration",0.050 ± 0.398 mmHg
same,Difference in intraocular pressure after the administration,"[2]; 0.01% eye drop, 1st day, 8 hours after the administration",−0.400 ± 0.392 mmHg
same,Difference in intraocular pressure after the administration,"[2]; 0.01% eye drop, 8th day, 0 hours after the administration",−0.200 ± 0.242 mmHg
same,Difference in intraocular pressure after the administration,"[2]; 0.01% eye drop, 15th day, 4 hours after the administration",−1.600 ± 0.882 mmHg
same,Difference in intraocular pressure after the administration,"[2]; 0.01% eye drop, 15th day, 8 hours after the administration",−0.350 ± 0.828 mmHg
same,Difference in intraocular pressure after the administration,"[2]; 0.01% eye drop, 22nd day, 0 hours after the administration",−0.850 ± 0.589 mmHg
same,Difference in intraocular pressure after the administration,"[2]; 0.01% eye drop, 22nd day, 8 hours after the administration",−0.550 ± 0.348 mmHg
same,Difference in intraocular pressure after the administration,"[2]; 0.01% eye drop, 29th day, 8 hours after the administration",−0.400 ± 0.392 mmHg
same,Difference in intraocular pressure after the administration,"[2]; 0.01% eye drop, 36th day, 0 hours after the administration",−0.500 ± 0.447 mmHg
same,Difference in intraocular pressure after the administration,"[2]; 0.01% eye drop, 36th day, 4 hours after the administration",−1.349 ± 0.831 mmHg
same,Difference in intraocular pressure after the administration,"[2]; 0.01% eye drop, 36th day, 8 hours after the administration",−1.250 ± 0.818 mmHg
same,Difference in intraocular pressure after the administration,"[2]; 0.01% eye drop, 43rd day, 0 hours after the administration",−0.150 ± 0.491 mmHg
same,Difference in intraocular pressure after the administration,"[2]; 0.01% eye drop, 43rd day, 8 hours after the administration",0.100 ± 0.376 mmHg
same,Difference in intraocular pressure after the administration,"[2]; 0.01% eye drop, 50th day, 0 hours after the administration",−0.400 ± 0.430 mmHg
same,Difference in intraocular pressure after the administration,"[2]; 0.01% eye drop, 50th day, 8 hours after the administration",−0.900 ± 0.551 mmHg
same,Difference in intraocular pressure after the administration,"[2]; 0.01% eye drop, 57th day, 0 hours after the administration",0.050 ± 0.366 mmHg
same,Difference in intraocular pressure after the administration,"[2]; 0.01% eye drop, 57th day, 8 hours after the administration",−0.150 ± 0.400 mmHg
same,time of maximum reduction in intraocular pressure after the administration,[2]; 0.01% eye drop,2 h
same,Difference in intraocular pressure after the administration,"[2]; 0.1% eye drop, 1st day, 0 hours after the administration",0.000 ± 0.285 mmHg
same,Difference in intraocular pressure after the administration,"[2]; 0.1% eye drop, 8th day, 0 hours after the administration",−1.050 ± 0.619 mmHg
same,Difference in intraocular pressure after the administration,"[2]; 0.1% eye drop, 15th day, 0 hours after the administration",−1.350 ± 0.944 mmHg
same,Difference in intraocular pressure after the administration,"[2]; 0.1% eye drop, 15th day, 8 hours after the administration",−1.700 ± 0.917 mmHg
same,Difference in intraocular pressure after the administration,"[2]; 0.1% eye drop, 36th day, 0 hours after the administration",−1.050 ± 0.878 mmHg
same,Difference in intraocular pressure after the administration,"[2]; 0.1% eye drop, 43rd day, 8 hours after the administration",−2.250 ± 0.862 mmHg
same,Difference in intraocular pressure after the administration,"[2]; 0.1% eye drop, 50th day, 0 hours after the administration",−0.600 ± 0.801 mmHg
same,Difference in intraocular pressure after the administration,"[2]; 0.1% eye drop, 50th day, 4 hours after the administration",−1.950 ± 0.756 mmHg
same,Difference in intraocular pressure after the administration,"[2]; 0.1% eye drop, 50th day, 8 hours after the administration",−1.150 ± 0.573 mmHg
same,Difference in intraocular pressure after the administration,"[2]; 0.1% eye drop, 57th day, 0 hours after the administration",−1.500 ± 0.822 mmHg
same,time of maximum reduction in intraocular pressure after the administration,[2]; 0.1% eye drop,2 h
"CCCC(=O)N1CCCN(c2nc(N)c3cc(OC)c(OC)cc3n2)CC1.Cl [bunazosin hydrochloride, 1-(4-amino-6,7-dimethoxy-2-quinazolinyl)-4-butyrylhexahydro-1H-1,4-diazepin hydrochloride, reference compound]",development of drug resistance (change in activity to reduce intraocular pressure by continuous administration),"[2]; 0.03% eye drop twice a day, up to 29th day, hydrochloride",any difference from the eyes administered with the control was hardly observed on the 22nd day; also recorded: any reduction in intraocular pressure was hardly observed on the 22nd day
same,Difference in intraocular pressure after the administration,"[2]; 0.03% eye drop, 1st day, 0 hours after the administration",0.700 ± 0.320 mmHg
same,Difference in intraocular pressure after the administration,"[2]; 0.03% eye drop, 1st day, 4 hours after the administration",−1.700 ± 1.452 mmHg
same,Difference in intraocular pressure after the administration,"[2]; 0.03% eye drop, 1st day, 8 hours after the administration",0.150 ± 0.947 mmHg
same,Difference in intraocular pressure after the administration,"[2]; 0.03% eye drop, 8th day, 0 hours after the administration",0.600 ± 0.579 mmHg
same,Difference in intraocular pressure after the administration,"[2]; 0.03% eye drop, 8th day, 4 hours after the administration",−0.950 ± 1.176 mmHg
same,Difference in intraocular pressure after the administration,"[2]; 0.03% eye drop, 8th day, 8 hours after the administration",−0.350 ± 0.430 mmHg
same,Difference in intraocular pressure after the administration,"[2]; 0.03% eye drop, 15th day, 0 hours after the administration",0.100 ± 0.562 mmHg
same,Difference in intraocular pressure after the administration,"[2]; 0.03% eye drop, 15th day, 2 hours after the administration",−1.450 ± 0.804 mmHg
same,Difference in intraocular pressure after the administration,"[2]; 0.03% eye drop, 15th day, 4 hours after the administration",−0.250 ± 0.494 mmHg
same,Difference in intraocular pressure after the administration,"[2]; 0.03% eye drop, 15th day, 8 hours after the administration",−0.100 ± 0.150 mmHg
same,Difference in intraocular pressure after the administration,"[2]; 0.03% eye drop, 22nd day, 0 hours after the administration",−0.050 ± 0.567 mmHg
same,Difference in intraocular pressure after the administration,"[2]; 0.03% eye drop, 22nd day, 2 hours after the administration",−0.250 ± 0.576 mmHg
same,Difference in intraocular pressure after the administration,"[2]; 0.03% eye drop, 22nd day, 4 hours after the administration",−0.200 ± 0.330 mmHg
same,Difference in intraocular pressure after the administration,"[2]; 0.03% eye drop, 22nd day, 8 hours after the administration",0.350 ± 0.150 mmHg
same,Difference in intraocular pressure after the administration,"[2]; 0.03% eye drop, 29th day, 0 hours after the administration",0.300 ± 1.011 mmHg
same,Difference in intraocular pressure after the administration,"[2]; 0.03% eye drop, 29th day, 2 hours after the administration",−0.250 ± 0.652 mmHg
same,Difference in intraocular pressure after the administration,"[2]; 0.03% eye drop, 29th day, 4 hours after the administration",−0.500 ± 0.306 mmHg
same,Difference in intraocular pressure after the administration,"[2]; 0.03% eye drop, 29th day, 8 hours after the administration",−0.200 ± 0.289 mmHg
same,attenuation in activity to reduce intraocular pressure,[3],initiate the attenuation in an activity to reduce intraocular pressure after 4-weeks continuous administration
same,expression level of the α1 A-AR (receptor levels),[4],induced the increase in the receptor levels about three times compared to the treatment with KRG-3333
